Source: patent publication US12077503B2, “Substituted cyclic amides and their use as herbicides” (FMC CORPORATION, priority 2015, dated 2024)

Key:
Type in all cases: in vivo
[1] = system: pigweed (Amaranthus retroflexus); experiment: Test A postemergence; conditions: Amaranthus retroflexus, post-emergence, 240 h
In short: (§1)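 In a loam soil and sand blend, planted seeds got a preemergence directed soil spray, and young plants at the one- to two-leaf stage, 2–10 cm high, got a postemergence application; ~10 d greenhouse hold; injury rated visually, 0 = none, 100 = complete control.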

[2] = system: giant foxtail (Setaria faberii); experiment: Test A postemergence; conditions: Setaria faberi, post-emergence, 240 h
In short: as §1

[3] = system: ryegrass, Italian (Italian ryegrass, Lolium multiflorum); experiment: Test A postemergence; conditions: Lolium multiflorum, post-emergence, 240 h
In short: as §1

[4] = system: blackgrass (Alopecurus myosuroides); experiment: Test A postemergence; conditions: Alopecurus myosuroides, post-emergence, 240 h
In short: as §1

[5] = system: Galium (catchweed bedstraw, Galium aparine); experiment: Test A postemergence; conditions: Galium, post-emergence, 240 h
In short: as §1

[6] = system: wheat (Triticum aestivum); experiment: Test A postemergence; conditions: Triticum aestivum, post-emergence, 240 h
In short: as §1

[7] = system: barnyardgrass (Echinochloa crus-galli); experiment: Test A postemergence; conditions: Echinochloa crus-galli, post-emergence, 240 h
In short: as §1

[8] = system: ragweed (common ragweed, Ambrosia elatior); experiment: Test A postemergence; conditions: Ambrosia artemisiifolia, post-emergence, 240 h
In short: as §1

Kochia (Kochia scoparia) [9] = experiment: Test A postemergence; conditions: Bassia scoparia, post-emergence, 240 h
In short: as §1

corn (Zea mays) = experiment: Test A postemergence; conditions: Zea mays, post-emergence, 240 h
In short: as §1

rice (Oryra sativa) = experiment: Test B flooded paddy test; conditions: Oryza sativa, 250 g ai/ha, Flood; 0 to 100 scale where 0 is no effect and 100 is complete control; read-out: Rice plant response rating
In short: (§2)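 Flooding to 3 cm over soil accompanied treatment, which consisted of adding compound to the standing water around 2-leaf plants; depth was then maintained. Visual assessment versus controls followed at 13 to 15 d (scale 0–100, 0 meaning no effect).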

[10] = system: sedge, umbrella (small-flower umbrella sedge, Cyperus difformis); experiment: Test B flooded paddy test; conditions: Cyperus difformis, 250 g ai/ha, Flood; 0 to 100 scale where 0 is no effect and 100 is complete control; read-out: Sedge, Umbrella plant response rating
In short: as §2

[11] = system: barnyardgrass (Echinochloa crus-galli); experiment: Test B flooded paddy test; conditions: Echinochloa crus-galli, 250 g ai/ha, Flood; 0 to 100 scale where 0 is no effect and 100 is complete control; read-out: Barnyardgrass plant response rating
In short: as §2

[12] = system: ducksalad (Heteranthera limosa); experiment: Test B flooded paddy test; conditions: Heteranthera limosa, 250 g ai/ha, Flood; 0 to 100 scale where 0 is no effect and 100 is complete control; read-out: Ducksalad plant response rating
In short: as §2

[13] = system: pigweed (Amaranthus retroflexus); experiment: Test A preemergence; conditions: Amaranthus retroflexus, pre-emergence, 240 h, 0 to 100 scale where 0 is no effect and 100 is complete control, read-out: Pigweed plant response rating
[14] = system: giant foxtail (Setaria faberii); experiment: Test A preemergence; conditions: Setaria faberi, pre-emergence, 240 h, 0 to 100 scale where 0 is no effect and 100 is complete control, read-out: Foxtail, Giant plant response rating
In short: as §1

[15] = system: ryegrass, Italian (Italian ryegrass, Lolium multiflorum); experiment: Test A preemergence; conditions: Lolium multiflorum, pre-emergence, 240 h, 0 to 100 scale where 0 is no effect and 100 is complete control, read-out: Ryegrass, Italian plant response rating
In short: as §1

[16] = system: barnyardgrass (Echinochloa crus-galli); experiment: Test A preemergence; conditions: Echinochloa crus-galli, pre-emergence, 240 h, 0 to 100 scale where 0 is no effect and 100 is complete control, read-out: Barnyardgrass plant response rating
In short: as §1

[17] = system: ragweed (common ragweed, Ambrosia elatior); experiment: Test A preemergence; conditions: Ambrosia artemisiifolia, pre-emergence, 240 h, 0 to 100 scale where 0 is no effect and 100 is complete control, read-out: Ragweed plant response rating
In short: as §1

Kochia (Kochia scoparia) [18] = experiment: Test A preemergence; conditions: Bassia scoparia, pre-emergence, 240 h, 0 to 100 scale where 0 is no effect and 100 is complete control, read-out: Kochia plant response rating
In short: as §1

[19] = 125 g ai/ha, preemergence, approx. 10 d

Question: With C=C(C)c1cccc([C@H]2CN(C)C(=O)[C@@H]2C(=O)Nc2ccc(F)c(F)c2F)c1 [Compound 1087] as the molecule, how does the pest or weed control at 125 g/ha ([1]; 125 g ai/ha, postemergence, visual injury on 0 to 100 scale (0 no effect, 100 complete control), approx. 10 d, read-out: Pigweed plant response rating) read?
Answer: 30%

Question: What about the pest or weed control at 31 g/ha ([1]; Postemergence, 31 g ai/ha, visual injury after approx. 10 d, 0 to 100 scale, 0 no effect, 100 complete control, read-out: Plant response rating, Pigweed) of the same molecule?
Answer: 0%

Question: What about the pest or weed control at 125 g/ha ([2]; 125 g ai/ha, postemergence, visual injury on 0 to 100 scale (0 no effect, 100 complete control), approx. 10 d, read-out: Foxtail, Giant plant response rating) of the same molecule?
Answer: 60%

Question: What about the pest or weed control at 31 g/ha ([2]; Postemergence, 31 g ai/ha, visual injury after approx. 10 d, 0 to 100 scale, 0 no effect, 100 complete control, read-out: Plant response rating, Foxtail, Giant) of the same molecule?
Answer: 30%

Question: What about the pest or weed control at 125 g/ha ([3]; 125 g ai/ha, postemergence, visual injury on 0 to 100 scale (0 no effect, 100 complete control), approx. 10 d, read-out: Ryegrass, Italian plant response rating) of the same molecule?
Answer: 0%

Question: And the pest or weed control at 31 g/ha ([3]; Postemergence, 31 g ai/ha, visual injury after approx. 10 d, 0 to 100 scale, 0 no effect, 100 complete control, read-out: Plant response rating, Ryegrass, Italian)?
Answer: 0%

Question: What about the pest or weed control at 125 g/ha ([4]; 125 g ai/ha, postemergence, visual injury on 0 to 100 scale (0 no effect, 100 complete control), approx. 10 d, read-out: Blackgrass plant response rating) of the same molecule?
Answer: 30%

Question: And the pest or weed control at 31 g/ha ([4]; Postemergence, 31 g ai/ha, visual injury after approx. 10 d, 0 to 100 scale, 0 no effect, 100 complete control, read-out: Plant response rating, Blackgrass)?
Answer: 0%

Question: What about the pest or weed control at 125 g/ha ([5]; 125 g ai/ha, postemergence, visual injury on 0 to 100 scale (0 no effect, 100 complete control), approx. 10 d, read-out: Galium plant response rating) of the same molecule?
Answer: 70%

Question: What about the pest or weed control at 31 g/ha ([5]; Postemergence, 31 g ai/ha, visual injury after approx. 10 d, 0 to 100 scale, 0 no effect, 100 complete control, read-out: Plant response rating, Galium) of the same molecule?
Answer: 30%

Question: What about the plant injury at 125 g/ha ([6]; 125 g ai/ha, postemergence, visual injury on 0 to 100 scale (0 no effect, 100 complete control), approx. 10 d, read-out: Wheat plant response rating) of the same molecule?
Answer: 0%

Question: What about the plant injury at 31 g/ha ([6]; Postemergence, 31 g ai/ha, visual injury after approx. 10 d, 0 to 100 scale, 0 no effect, 100 complete control, read-out: Plant response rating, Wheat) of the same molecule?
Answer: 0%

Question: And the pest or weed control at 125 g/ha ([7]; 125 g ai/ha, postemergence, visual injury on 0 to 100 scale (0 no effect, 100 complete control), approx. 10 d, read-out: Barnyardgrass plant response rating)?
Answer: 90%

Question: And the pest or weed control at 31 g/ha ([7]; Postemergence, 31 g ai/ha, visual injury after approx. 10 d, 0 to 100 scale, 0 no effect, 100 complete control, read-out: Plant response rating, Barnyardgrass)?
Answer: 20%

Question: What about the pest or weed control at 125 g/ha ([8]; 125 g ai/ha, postemergence, visual injury on 0 to 100 scale (0 no effect, 100 complete control), approx. 10 d, read-out: Ragweed plant response rating) of the same molecule?
Answer: 0%

Question: And the pest or weed control at 31 g/ha ([8]; Postemergence, 31 g ai/ha, visual injury after approx. 10 d, 0 to 100 scale, 0 no effect, 100 complete control, read-out: Plant response rating, Ragweed)?
Answer: 0%

Question: And the pest or weed control at 125 g/ha (Kochia (Kochia scoparia) [9]; 125 g ai/ha, postemergence, visual injury on 0 to 100 scale (0 no effect, 100 complete control), approx. 10 d, read-out: Kochia plant response rating)?
Answer: 20%

Question: What about the pest or weed control at 31 g/ha (Kochia (Kochia scoparia) [9]; Postemergence, 31 g ai/ha, visual injury after approx. 10 d, 0 to 100 scale, 0 no effect, 100 complete control, read-out: Plant response rating, Kochia) of the same molecule?
Answer: 0%

Question: And the plant injury at 125 g/ha (corn (Zea mays); 125 g ai/ha, postemergence, visual injury on 0 to 100 scale (0 no effect, 100 complete control), approx. 10 d, read-out: Corn plant response rating)?
Answer: 0%

Question: And the Corn plant response rating (crop injury, 0 = no effect, 100 = complete kill) at 31 g/ha (corn (Zea mays); Postemergence, 31 g ai/ha, visual injury after approx. 10 d, 0 to 100 scale, 0 no effect, 100 complete control)?
Answer: 0%

Question: And the pest or weed control at 250 g/ha (rice (Oryra sativa))?
Answer: 25%

Question: What about the pest or weed control at 250 g/ha [10] of the same molecule?
Answer: 0%

Question: And the pest or weed control at 250 g/ha [11]?
Answer: 70%

Question: And the pest or weed control at 250 g/ha [12]?
Answer: 30%

Question: What about the pest or weed control at 31 g/ha ([13]; 31 g ai/ha, Preemergence) of the same molecule?
Answer: 0%

Question: What about the pest or weed control at 125 g/ha [13, 19] of the same molecule?
Answer: 0%

Question: And the pest or weed control at 31 g/ha ([14]; 31 g ai/ha, Preemergence)?
Answer: 90%

Question: What about the pest or weed control at 125 g/ha [14, 19] of the same molecule?
Answer: 100%

Question: What about the pest or weed control at 31 g/ha ([15]; 31 g ai/ha, Preemergence) of the same molecule?
Answer: 0%

Question: And the pest or weed control at 125 g/ha [15, 19]?
Answer: 30%

Question: And the pest or weed control at 31 g/ha ([16]; 31 g ai/ha, Preemergence)?
Answer: 0%

Question: What about the pest or weed control at 125 g/ha [16, 19] of the same molecule?
Answer: 90%

Question: And the pest or weed control at 31 g/ha ([17]; 31 g ai/ha, Preemergence)?
Answer: 0%

Question: And the pest or weed control at 125 g/ha [17, 19]?
Answer: 0%

Question: What about the pest or weed control at 31 g/ha (Kochia (Kochia scoparia) [18]; 31 g ai/ha, Preemergence) of the same molecule?
Answer: 0%

Question: What about the pest or weed control at 125 g/ha (Kochia (Kochia scoparia) [18]; [19]) of the same molecule?
Answer: 60%
